Experimental data as given in patent US20100298141A1, “SUBSTITUTED PYRIDINE N-OXIDE HERBICIDES” (E. I. DU PONT DE NEMOURS AND COMPANY, priority 2007, published 2010).

What was measured:
downy brome = experiment: Test C pre-/postemergence test; assay type: in vivo, Bromus tectorum; conditions: Postemergence; for Plant response rating, Bromegrass, Downy: scale 0 to 100, 0 no effect, 100 complete control
Outline: (§1)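 Seeds were planted and treated preemergence with test chemical in a non-phytotoxic solvent mixture containing surfactant. Postemergence applications of the same formulation went onto plants 2 to 18 cm tall (1- to 4-leaf stage). A dash marks no test result.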

johnsongrass = experiment: Test C pre-/postemergence test; assay type: in vivo, Sorghum halepense
Outline: as §1

velvetleaf [1] = experiment: Test C pre-/postemergence test; assay type: in vivo, Abutilon theophrasti
Outline: as §1

wild oat = experiment: Test C pre-/postemergence test; assay type: in vivo, Avena fatua; conditions: Postemergence; for Plant response rating, Oat, Wild: scale 0 to 100, 0 no effect, 100 complete control
Outline: as §1

woolly cupgrass = experiment: Test C pre-/postemergence test; assay type: in vivo, Eriochloa villosa
Outline: as §1

corn = experiment: Test C pre-/postemergence test; assay type: in vivo, Zea mays
Outline: as §1

morningglory = experiment: Test C pre-/postemergence test; assay type: in vivo, Ipomoea coccinea
Outline: as §1

wheat [2] = experiment: Test C pre-/postemergence test; assay type: in vivo, Triticum aestivum; conditions: Postemergence; for Plant response rating, Wheat: scale 0 to 100, 0 no effect, 100 complete control
Outline: as §1

giant foxtail = experiment: Test C pre-/postemergence test; assay type: in vivo, Setaria faberii
Outline: as §1

velvetleaf [3] = experiment: Test A pre-/postemergence greenhouse test; assay type: in vivo, Abutilon theophrasti; conditions: for Velvetleaf plant response rating: 0 to 100 scale; for Plant response rating, Velvetleaf: 0 to 100 scale where 0 is no effect and 100 is complete control
Outline: (§2)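 Visual injury ratings against untreated controls, taken roughly ten days after treatment in greenhouse. Plants were sprayed postemergence at one- to two-leaf stage (2–10 cm tall); at the same time, seeded loam/sand soil received a directed preemergence spray. Formulation: non-phytotoxic solvent mixture with surfactant.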

yellow nutsedge = experiment: Test C pre-/postemergence test; assay type: in vivo, Cyperus esculentus
Outline: as §1

redroot pigweed = experiment: Test A pre-/postemergence greenhouse test; assay type: in vivo, Amaranthus retroflexus; conditions: for Pigweed plant response rating: 0 to 100 scale; for Plant response rating, Pigweed: 0 to 100 scale where 0 is no effect and 100 is complete control
Outline: as §2

eastern black nightshade = experiment: Test C pre-/postemergence test; assay type: in vivo, Solanum ptycanthum
Excerpt: Seeds of plant species selected from blackgrass (Alopecurus myosuroides), downy brome (Bromus tectorum), green foxtail (Setaria viridis), Italian ryegrass (Lolium multiflorum), wheat (Triticum aestivum), wild oat (Avena fatua), catchweed bedstraw (Galium aparine), Russian thistle (Salsola kali), […] (Cynodon dactylon), Surinam grass (Brachiaria decumbens), cocklebur (Xanthium strumarium), corn (Zea mays), crabgrass (Digitaria sanguinalis), woolly cupgrass (Eriochloa villosa), giant foxtail (Setaria faberii), Goosegrass (Eleusin indica), johnsongrass (Sorghum halepense), kochia (Kochia scoparia), lambsquarters (Chenopodium album), morningglory (Ipomoea coccinea), eastern black nightshade (Solanum ptycanthum), yellow nutsedge (Cyperus esculentus), pigweed (Amaranthus retroflexus), common ragweed (Ambrosia elation), soybean (Glycine max), common (oilseed) sunflower (Helianthus annuus), and velvetleaf (Abutilon theophrasti) were planted and treated preemergence with test chemicals formulated in a non-phytotoxic solvent mixture which included a surfactant. At the same time, plants selected from these crop and weed species and also winter barley (Hordeum vulgare), canarygrass (Phalaris minor), and chickweed (Stellaria media) were treated with postemergence applications of some of the test chemicals formulated in the same manner. Plants ranged in height from 2 to 18 cm (1- to 4-leaf stage) for postemergence treatments. […] At time of treatment, test pots were flooded to 3 cm above the soil surface, treated by application of test compounds directly to the paddy water, and then maintained at that water depth for the duration of the test. […] A dash (-) response means no test result.

wheat [4] = experiment: Test A pre-/postemergence greenhouse test; assay type: in vivo, Triticum aestivum; conditions: for Wheat plant response rating: 0 to 100 scale; for Plant response rating, Wheat: 0 to 100 scale where 0 is no effect and 100 is complete control
Outline: as §2

duck salad = experiment: Test C flooded paddy test; assay type: in vivo, Heteranthera limosa; conditions: Flood
Outline: (§3)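 Visual injury ratings against untreated controls, taken 13 to 15 days after compound was added to paddy water standing 3 cm above the soil.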

rice = experiment: Test C flooded paddy test; assay type: in vivo, Oryza sativa; conditions: Flood
Outline: as §3

[5] = 31 g ai/ha, Preemergence, scale 0 to 100
[6] = 62 g ai/ha, preemergence, scale 0 (no effect) to 100 (complete control)
[7] = Postemergence, 62 g ai/ha, scale 0 to 100, 0 no effect, 100 complete control
[8] = Postemergence, 125 g ai/ha, scale 0 to 100, 0 no effect, 100 complete control
[9] = Postemergence, 250 g ai/ha, scale 0 to 100, 0 no effect, 100 complete control
[10] = preemergence, 125 g ai/ha, scale 0 (no effect) to 100 (complete control)
[11] = Postemergence, 125 g ai/ha, 0 is no effect, 100 is complete control
[12] = Postemergence, 500 g ai/ha, 0 is no effect, 100 is complete control
[13] = Preemergence, 125 g ai/ha, 0 no effect, 100 complete control
[14] = 62 g ai/ha, Preemergence, scale 0 to 100
[15] = 125 g ai/ha, preemergence, scale 0 (no effect) to 100 (complete control)
[16] = Preemergence, 31 g ai/ha, scale 0 to 100 (0 no effect, 100 complete control)
[17] = preemergence, 250 g ai/ha, scale 0 (no effect) to 100 (complete control)
[18] = 31 g ai/ha, scale 0 to 100 (0 no effect, 100 complete control)
[19] = 62 g ai/ha, scale 0 to 100, 0 no effect, 100 complete control, 13 to 15 days
[20] = 125 g ai/ha, scale 0 to 100, 0 no effect, 100 complete control, 13 to 15 days
[21] = 250 g ai/ha, scale 0 to 100, 0 no effect, 100 complete control, 13 to 15 days

Cn1nc(C(F)(F)F)c(C[S+]([O-])c2ccc(Cl)c[n+]2[O-])c1OC(F)F (stereo not shown) [Compound 6]
50: Plant response rating, Bromegrass, Downy (downy brome; 125 g ai/ha) | Plant response rating, Velvetleaf (velvetleaf [1]; [9]) | Plant response rating, Oat, Wild (wild oat; 62 g ai/ha) | Plant response rating, Cupgrass, Woolly (woolly cupgrass; [8]) | Plant response rating, Morningglory (morningglory; [7]) | Plant response rating, Morningglory (morningglory; [8]) | Plant response rating, Morningglory (morningglory; [9]) | Foxtail, Giant plant response rating (giant foxtail; [5]) | Velvetleaf plant response rating (velvetleaf [3]; [11])
25: Plant response rating, Wheat (wheat [2]; 250 g ai/ha)
98: Johnsongrass plant response rating (johnsongrass; [6]) | Johnsongrass plant response rating (johnsongrass; [10]) | Plant response rating (0 to 100), Corn (corn; Preemergence, 250 g ai/ha) | Foxtail, Giant plant response rating (giant foxtail; [10]) | Plant response rating (0 to 100), Nutsedge, Yellow (yellow nutsedge; Preemergence, 250 g ai/ha) | Nightshade plant response rating (eastern black nightshade; [6])
70: Plant response rating (0 to 100), Morningglory (morningglory; Preemergence, 250 g ai/ha) | Plant response rating, Foxtail, Giant (giant foxtail; [9]) | Wheat plant response rating (wheat [4]; [12])
55: Plant response rating, Cupgrass, Woolly (woolly cupgrass; [9])
65: Johnsongrass plant response rating (johnsongrass; [5])
80: Plant response rating, Bromegrass, Downy (downy brome; 250 g ai/ha) | Velvetleaf plant response rating (velvetleaf [3]; [12]) | Nutsedge, Yellow plant response rating (yellow nutsedge; [10])
60: Plant response rating, Oat, Wild (wild oat; 250 g ai/ha) | Corn plant response rating (corn; [6]) | Corn plant response rating (corn; [10]) | Plant response rating, Foxtail, Giant (giant foxtail; [8])
10: Plant response rating (0 to 100), Velvetleaf (velvetleaf [1]; Postemergence, 62 g ai/ha) | Plant response rating (0 to 100), Morningglory (morningglory; Postemergence, 31 g ai/ha) | Morningglory plant response rating (morningglory; [10])
30: Plant response rating, Bromegrass, Downy (downy brome; 62 g ai/ha) | Plant response rating, Johnsongrass (johnsongrass; [8]) | Plant response rating, Velvetleaf (velvetleaf [1]; [8]) | Plant response rating, Foxtail, Giant (giant foxtail; [7]) | Wheat plant response rating (wheat [4]; [11])
0: Plant response rating (0 to 100), Bromegrass, Downy (downy brome; 31 g ai/ha) | Plant response rating (0 to 100), Johnsongrass (johnsongrass; Postemergence, 31 g ai/ha) | Plant response rating, Johnsongrass (johnsongrass; [7]) | Velvetleaf plant response rating (velvetleaf [1]; [6]) | Plant response rating (0 to 100), Velvetleaf (velvetleaf [1]; Postemergence, 31 g ai/ha) | Plant response rating (0 to 100), Cupgrass, Woolly (woolly cupgrass; Postemergence, 31 g ai/ha) | Plant response rating, Cupgrass, Woolly (woolly cupgrass; [7]) | Corn plant response rating (corn; [5]) | Plant response rating (0 to 100), Corn (corn; Postemergence, 31 g ai/ha) | Plant response rating, Corn (corn; [7]) | Plant response rating, Corn (corn; [8]) | Plant response rating, Corn (corn; [9]) | Morningglory plant response rating (morningglory; [5]) | Morningglory plant response rating (morningglory; [6]) | Plant response rating (0 to 100), Foxtail, Giant (giant foxtail; Postemergence, 31 g ai/ha) | Nutsedge, Yellow plant response rating (yellow nutsedge; [5]) | Plant response rating (0 to 100), Nutsedge, Yellow (yellow nutsedge; Postemergence, 31 g ai/ha) | Plant response rating, Nutsedge, Yellow (yellow nutsedge; [7]) | Plant response rating, Nutsedge, Yellow (yellow nutsedge; [8])
100: Plant response rating (0 to 100), Johnsongrass (johnsongrass; Preemergence, 250 g ai/ha) | Cupgrass, Woolly plant response rating (woolly cupgrass; [6]) | Plant response rating (0 to 100), Cupgrass, Woolly (woolly cupgrass; Preemergence, 250 g ai/ha) | Cupgrass, Woolly plant response rating (woolly cupgrass; [10]) | Plant response rating (0 to 100), Foxtail, Giant (giant foxtail; Preemergence, 250 g ai/ha) | Plant response rating, Velvetleaf (velvetleaf [3]; Preemergence, 500 g ai/ha) | Pigweed plant response rating (redroot pigweed; [11]) | Pigweed plant response rating (redroot pigweed; [12]) | Pigweed plant response rating (redroot pigweed; [13]) | Plant response rating, Pigweed (redroot pigweed; Preemergence, 500 g ai/ha) | Plant response rating (0 to 100), Nightshade (eastern black nightshade; Preemergence, 250 g ai/ha)
35: Plant response rating, Johnsongrass (johnsongrass; [9])
95: Foxtail, Giant plant response rating (giant foxtail; [6])
40: Plant response rating (0 to 100), Velvetleaf (velvetleaf [1]; Preemergence, 250 g ai/ha)
20: Plant response rating (0 to 100), Oat, Wild (wild oat; 31 g ai/ha) | Plant response rating (0 to 100), Wheat (wheat [2]; 31 g ai/ha) | Plant response rating (0 to 100), Wheat (wheat [2]; 62 g ai/ha) | Plant response rating, Wheat (wheat [2]; 125 g ai/ha) | Nutsedge, Yellow plant response rating (yellow nutsedge; [6]) | Plant response rating, Nutsedge, Yellow (yellow nutsedge; [9])
90: Cupgrass, Woolly plant response rating (woolly cupgrass; [5]) | Velvetleaf plant response rating (velvetleaf [3]; [13]) | Wheat plant response rating (wheat [4]; [13]) | Plant response rating, Wheat (wheat [4]; Preemergence, 500 g ai/ha)

Cn1nc(C(F)(F)F)c(C[S+]([O-])c2cc(Cl)cc[n+]2[O-])c1Cl (racemic) [Compound 39]
10: Plant response rating, Rice (rice; [19])
90: Plant response rating, Ducksalad (duck salad; [20]) | Foxtail, Giant plant response rating (giant foxtail; [14]) | Foxtail, Giant plant response rating (giant foxtail; [17]) | Nightshade plant response rating (eastern black nightshade; [14])
50: Nutsedge, Yellow plant response rating (yellow nutsedge; [14]) | Plant response rating, Nutsedge, Yellow (yellow nutsedge; [16]) | Wheat plant response rating (wheat [4]; [13])
80: Johnsongrass plant response rating (johnsongrass; [14]) | Plant response rating, Ducksalad (duck salad; [19]) | Corn plant response rating (corn; [17]) | Morningglory plant response rating (morningglory; [14])
30: Plant response rating, Johnsongrass (johnsongrass; [16]) | Plant response rating, Velvetleaf (velvetleaf [1]; [16]) | Plant response rating, Morningglory (morningglory; [16])
5: Corn plant response rating (corn; [14])
75: Plant response rating, Nightshade (eastern black nightshade; [16])
60: Velvetleaf plant response rating (velvetleaf [1]; [15]) | Velvetleaf plant response rating (velvetleaf [3]; [12]) | Pigweed plant response rating (redroot pigweed; [11]) | Wheat plant response rating (wheat [4]; [11]) | Wheat plant response rating (wheat [4]; [12])
0: Plant response rating, Rice (rice; [18]) | Plant response rating, Corn (corn; [16])
95: Plant response rating, Ducksalad (duck salad; [21]) | Nightshade plant response rating (eastern black nightshade; [15])
85: Johnsongrass plant response rating (johnsongrass; [15]) | Johnsongrass plant response rating (johnsongrass; [17]) | Cupgrass, Woolly plant response rating (woolly cupgrass; [14]) | Cupgrass, Woolly plant response rating (woolly cupgrass; [15]) | Cupgrass, Woolly plant response rating (woolly cupgrass; [17]) | Nutsedge, Yellow plant response rating (yellow nutsedge; [15]) | Nutsedge, Yellow plant response rating (yellow nutsedge; [17])
65: Plant response rating, Rice (rice; [21])
40: Plant response rating, Cupgrass, Woolly (woolly cupgrass; [16]) | Plant response rating, Rice (rice; [20]) | Velvetleaf plant response rating (velvetleaf [3]; [11])
100: Velvetleaf plant response rating (velvetleaf [1]; [17]) | Morningglory plant response rating (morningglory; [15]) | Morningglory plant response rating (morningglory; [17]) | Plant response rating, Velvetleaf (velvetleaf [3]; Preemergence, 500 g ai/ha) | Pigweed plant response rating (redroot pigweed; [12]) | Pigweed plant response rating (redroot pigweed; [13]) | Plant response rating, Pigweed (redroot pigweed; Preemergence, 500 g ai/ha)
70: Plant response rating, Ducksalad (duck salad; [18]) | Corn plant response rating (corn; [15]) | Velvetleaf plant response rating (velvetleaf [3]; [13]) | Plant response rating, Wheat (wheat [4]; Preemergence, 500 g ai/ha)
98: Nightshade plant response rating (eastern black nightshade; [17])
20: Plant response rating, Foxtail, Giant (giant foxtail; [16])
45: Velvetleaf plant response rating (velvetleaf [1]; [14])
